pIC50: −log10 of the molar value.
What follows are molecules tested on SU-DHL-1 cells (assay: Inhibition activity of cell proliferation (CCK-8 assay)). Conditions: Homo sapiens, 72 h exposure.
Format: cell-based
Protocol: SU-DHL-1 cells were seeded in 96-well tissue culture plates. On the next day, cells were exposed to various concentrations of compounds and further cultured for 72 h. Cell proliferation was then determined using Cell Counting Kit-8 [(CCK-8), Dojindo]assay. Briefly, add 10 μL of the CCK-8 solution to each well of the plate. Incubate the plate for 1-4 hours in the incubator. Measure the absorbance at 450 nm using a multi-well spectrophotometer (SpectraMAX 190, Molecular Devices). The inhibition rate (%) was calculated using the following equation: [1−(A450 Compound/A450 Control)]×100%. IC50 values were calculated according to inhibition curve by four-parameter fit.

SMILES	pIC50
Cc1cc(Nc2nc(Nc3ccccc3S(=O)(=O)C(C)C)c3c(C)n[nH]c3n2)c2c(c1C1CCNCC1)CCO2 [Example 1]	7.59
Cc1cc(Nc2nc(Nc3ccccc3S(=O)(=O)C(C)C)c3c(C)n[nH]c3n2)c2c(c1C1CCN(C)CC1)CCO2 [Example 2, N-4-(2-(isopropylsulfonyl)phenyl)-3-methyl-N-6-(5-methyl-4-(1-methylpiperidin-4-yl)-2,3-dihydrobenzofuran-7-yl)-1H-pyrazolo[3,4-d]pyrimidine-4,6-diamine]	7.72
Cc1cc(Nc2nc(Nc3ccccc3S(=O)(=O)C(C)C)c3c(C)n[nH]c3n2)c2c(c1C1CCNCC1)C[C@@H](C)O2 [Example 3, (R)—N-6-(2,5-dimethyl-4-(piperidin-4-yl)-2,3-dihydrobenzofuran-7-yl)-N-4-(2-(isopropylsulfonyl)-phenyl)-3-methyl-1H-pyrazolo[3,4-d]pyrimidine-4,6-diamine]	7.21
Cc1cc(Nc2nc(Nc3ccccc3S(=O)(=O)C(C)C)c3c(C)n[nH]c3n2)c2c(c1C1CCNCC1)C[C@H](C)O2 [Example 5]	7.92
Cc1cc(Nc2nc(Nc3ccccc3S(=O)(=O)C(C)C)c3c(C)n[nH]c3n2)c2c(c1C1CCN(C)CC1)C[C@H](C)O2 [Example 6]	7.46
Cc1cc(Nc2nc(Nc3ccccc3S(=O)(=O)C(C)C)c3c(C)n[nH]c3n2)c2c(c1C1CCNCC1)CC(CO)O2 (stereo not drawn) [Example 7, (7-(4-(2-(isopropylsulfonyl)phenylamino)-3-methyl-1H-pyrazolo[3,4-d]pyrimidin-6-ylamino)-5-methyl-4-(piperidin-4-yl)-2,3-dihydrobenzofuran-2-yl)methanol]	6.53
COCC1Cc2c(c(Nc3nc(Nc4ccccc4S(=O)(=O)C(C)C)c4c(C)n[nH]c4n3)cc(C)c2C2CCNCC2)O1 (stereo not drawn) [Example 8, N-4-(2-(isopropylsulfonyl)phenyl)-N-6-(2-(methoxymethyl)-5-methyl-4-(piperidin-4-yl)-2,3-dihydrobenzofuran-7-yl)-3-methyl-1H-pyrazolo[3,4-d]pyrimidine-4,6-diamine]	7.28
Cc1cc(Nc2ncc(Cl)c(Nc3ccccc3S(=O)(=O)C(C)C)n2)c2c(c1C1CCNCC1)C[C@@H](C)O2 [Example 9, (R)-5-chloro-N-2-(2,5-dimethyl-4-(piperidin-4-yl)-2,3-dihydrobenzofuran-7-yl)-N-4-(2-(isopropylsulfonyl)phenyl)pyrimidine-2,4-diamine]	7.01
Cc1cc(Nc2ncc(Cl)c(Nc3ccccc3S(=O)(=O)C(C)C)n2)c2c(c1C1CCN(C)CC1)C[C@@H](C)O2 [Example 10, (R)-5-chloro-N-2-(2,5-dimethyl-4-(1-methylpiperidin-4-yl)-2,3-dihydrobenzofuran-7-yl)-N-4-(2-(isopropylsulfonyl)phenyl)pyrimidine-2,4-diamine]	> 9.70
Cc1cc(Nc2ncc(Cl)c(Nc3ccccc3S(=O)(=O)C(C)C)n2)c2c(c1C1CCNCC1)C[C@H](C)O2 [Example 11, (S)-5-chloro-N-2-(2,5-dimethyl-4-(piperidin-4-yl)-2,3-dihydrobenzofuran-7-yl)-N-4-(2-(isopropylsulfonyl)phenyl)pyrimidine-2,4-diamine]	> 8.39
Cc1cc(Nc2ncc(Cl)c(Nc3ccccc3S(=O)(=O)C(C)C)n2)c2c(c1C1CCN(C)CC1)C[C@H](C)O2 [Example 12]	8.40
Cc1cc(Nc2ncc(Cl)c(Nc3ccccc3S(=O)(=O)C(C)C)n2)c2c(c1C1CCNCC1)CCO2 [Example 13]	> 8.39
Cc1cc(Nc2ncc(Cl)c(Nc3ccccc3S(=O)(=O)C(C)C)n2)c2c(c1C1CCN(C)CC1)CCO2 [Example 14]	8.18
CC(=O)N1CCC(c2c(C)cc(Nc3ncc(Cl)c(Nc4ccccc4S(=O)(=O)C(C)C)n3)c3c2C[C@H](C)O3)CC1 [Example 15, (S)-1-(4-(7-((5-chloro-4-((2-(isopropylsulfonyl)phenyl)amino)pyrimidin-2-yl)amino)-2,5-dimethyl-2,3-dihydrobenzofuran-4-yl)piperidin-1-yl)ethanone]	7.42
CC(=O)N1CCC(c2c(C)cc(Nc3ncc(Cl)c(Nc4ccccc4S(=O)(=O)C(C)C)n3)c3c2C[C@@H](C)O3)CC1 [Example 16, (R)-1-(4-(7-((5-chloro-4-((2-(isopropylsulfonyl)phenyl)amino)pyrimidin-2-yl)amino)-2,5-dimethyl-2,3-dihydrobenzofuran-4-yl)piperidin-1-yl)ethanone]	7.94
Cc1cc(Nc2ncc(Cl)c(Nc3ccccc3S(=O)(=O)C(C)C)n2)c2c(c1C1CCN(S(C)(=O)=O)CC1)C[C@H](C)O2 [Example 17, (S)-5-chloro-N-2-(2,5-dimethyl-4-(1-(methylsulfonyl)piperidin-4-yl)-2,3-dihydrobenzofuran-7-yl)-N-4-(2-(isopropylsulfonyl)phenyl)pyrimidine-2,4-diamine]	7.16
Cc1cc(Nc2ncc(Cl)c(Nc3ccccc3S(=O)(=O)C(C)C)n2)c2c(c1C1CCN(S(C)(=O)=O)CC1)C[C@@H](C)O2 [Example 18]	7.80
Cc1cc(Nc2ncc(Cl)c(Nc3ccccc3S(=O)(=O)C(C)C)n2)c2c(c1C1CCN(CC(=O)O)CC1)C[C@H](C)O2 [Example 19, (S)-2-(4-(7-((5-chloro-4-((2-(isopropylsulfonyl)phenyl)amino)pyrimidin-2-yl)amino)-2,5-dimethyl-2,3-dihydrobenzofuran-4-yl)piperidin-1-yl)acetic acid]	8.31
Cc1cc(Nc2ncc(Cl)c(Nc3ccccc3S(=O)(=O)C(C)C)n2)c2c(c1C1CCN(CC(=O)O)CC1)C[C@@H](C)O2 [Example 20, (R)-2-(4-(7-((5-chloro-4-((2-(isopropylsulfonyl)phenyl)amino)pyrimidin-2-yl)amino)-2,5-dimethyl-2,3-dihydrobenzofuran-4-yl)piperidin-1-yl)acetic acid]	7.21
Cc1cc(Nc2ncc(Cl)c(Nc3ccccc3S(=O)(=O)C(C)C)n2)c2c(c1C1CCN(C(=O)[C@H](C)N)CC1)C[C@H](C)O2 [Example 21, (S)-2-amino-1-(4-((S)-7-((5-chloro-4-((2-(isopropylsulfonyl)phenyl)amino)pyrimidin-2-yl)amino)-2,5-dimethyl-2,3-dihydrobenzofuran-4-yl)piperidin-1-yl)propan-1-one]	7.16
Cc1cc(Nc2ncc(Cl)c(Nc3ccccc3S(=O)(=O)C(C)C)n2)c2c(c1C1CCN(C(=O)[C@H](C)N)CC1)C[C@@H](C)O2 [Example 22, (S)-2-amino-1-(4-((R)-7-((5-chloro-4-((2-(isopropylsulfonyl)phenyl)amino)pyrimidin-2-yl)amino)-2,5-dimethyl-2,3-dihydrobenzofuran-4-yl)piperidin-1-yl)propan-1-one]	7.07
Cc1cc(Nc2ncc(Cl)c(Nc3ccccc3S(=O)(=O)C(C)C)n2)c2c(c1C1CCN(C[C@@H](C)O)CC1)C[C@@H](C)O2 [Example 23, (R)-1-(4-((R)-7-((5-chloro-4-((2-(isopropylsulfonyl)phenyl)amino)pyrimidin-2-yl)amino)-2,5-dimethyl-2,3-dihydrobenzofuran-4-yl)piperidin-1-yl)propan-2-ol]	7.91
Cc1cc(Nc2ncc(Cl)c(Nc3ccccc3S(=O)(=O)C(C)C)n2)c2c(c1C1CCN(C[C@H](C)O)CC1)C[C@@H](C)O2 [Example 24, (S)-1-(4-((R)-7-((5-chloro-4-((2-(isopropylsulfonyl)phenyl)amino)pyrimidin-2-yl)amino)-2,5-dimethyl-2,3-dihydrobenzofuran-4-yl)piperidin-1-yl)propan-2-ol]	8.08
Cc1cc(Nc2ncc(Cl)c(Nc3ccccc3S(=O)(=O)C(C)C)n2)c2c(c1C1CCN(CC(N)=O)CC1)C[C@H](C)O2 [Example 25, (S)-2-(4-(7-((5-chloro-4-((2-(isopropylsulfonyl)phenyl)amino)pyrimidin-2-yl)amino)-2,5-dimethyl-2,3-dihydrobenzofuran-4-yl)piperidin-1-yl)acetamide]	7.44
Cc1cc(Nc2ncc(Cl)c(Nc3ccccc3S(=O)(=O)C(C)C)n2)c2c(c1C1CCN(CC(N)=O)CC1)C[C@@H](C)O2 [Example 26, (R)-2-(4-(7-((5-chloro-4-((2-(isopropylsulfonyl)phenyl)amino)pyrimidin-2-yl)amino)-2,5-dimethyl-2,3-dihydrobenzofuran-4-yl)piperidin-1-yl)acetamide]	7.86
Cc1cc(Nc2ncc(Cl)c(Nc3ccccc3S(=O)(=O)C(C)C)n2)c2c(c1C1CCN(CC(=O)N(C)C)CC1)C[C@H](C)O2 [Example 27, (S)-2-(4-(7-((5-chloro-4-((2-(isopropylsulfonyl)phenyl)amino)pyrimidin-2-yl)amino)-2,5-dimethyl-2,3-dihydrobenzofuran-4-yl)piperidin-1-yl)-N,N-dimethylacetamide]	7.43
Cc1cc(Nc2ncc(Cl)c(Nc3ccccc3S(=O)(=O)C(C)C)n2)c2c(c1C1CCN(CC(=O)N(C)C)CC1)C[C@@H](C)O2 [Example 28, (R)-2-(4-(7-((5-chloro-4-((2-(isopropylsulfonyl)phenyl)amino)pyrimidin-2-yl)amino)-2,5-dimethyl-2,3-dihydrobenzofuran-4-yl)piperidin-1-yl)-N,N-dimethylacetamide]	7.33
Cc1cc(Nc2ncc(Cl)c(Nc3ccccc3S(=O)(=O)C(C)C)n2)c2c(c1C1CCN(CCS(C)(=O)=O)CC1)C[C@H](C)O2 [Example 29]	7.19
Cc1cc(Nc2ncc(Cl)c(Nc3ccccc3S(=O)(=O)C(C)C)n2)c2c(c1C1CCN(CCS(C)(=O)=O)CC1)C[C@@H](C)O2 [Example 30]	7.76
COCCN1CCC(c2c(C)cc(Nc3ncc(Cl)c(Nc4ccccc4S(=O)(=O)C(C)C)n3)c3c2C[C@H](C)O3)CC1 [Example 31, (S)-5-chloro-N-4-(2-(isopropylsulfonyl)phenyl)-N-2-(4-(1-(2-methoxyethyl)piperidin-4-yl)-2,5-dimethyl-2,3-dihydrobenzofuran-7-yl)pyrimidine-2,4-diamine]	7.13

Source: patent US9567342B2, “Certain protein kinase inhibitors” (SHANGHAI FOCHON PHARMACEUTICAL CO., LTD., priority 2012, dated 2017)
